Drawing on a melting point compilation (Tetko et al.; mined from patent text by program, amines drawn as free bases though some values may be those of a salt), this text covers melting point for 35 molecules.

In the case of `CCC(CC)c1nnc(S)n(N)c1=O`, the melting point was in the range of 162 to 164 °C.
With `N#Cc1ccc(N2CCN(CCC3CCc4ccccc43)CC2)cc1` (stereo not given), the melting point lay within 157 to 158 °C.
The value for `CCOC(=O)c1c(C(F)(F)F)nc(OCC)c(C(N)=O)c1OCC` was 103 to 105 °C; that for `Cc1onc(NS(=O)(=O)c2ccccc2-c2ccc(-c3ncccn3)cc2CN2CCC(C)(C)C2=O)c1C` was 125 to 132 °C; that for `O=c1[nH]c2scc(C3CCCCC3)c2[nH]c1=O` was above 270 °C.
`O=C1CC(=O)N(c2ccc(Cl)cc2)N1` yielded a melting point of 189 to 193 °C.
`CCN(CC)CC(=O)OC1CC2(C)C(C(C)=O)CCC2C2CCC3CC(O)C(Br)CC3(C)C12` (stereo not given) gave a melting point of 149 to 150 °C.
For the molecule `O=C(C=Cc1ccccc1)Nc1ccc2ccc(Cl)nc2n1`, the melting point stood at 263 °C.
In the case of `CC#CC(C)(C)NC(=O)C(Oc1cc(Cl)nc(Cl)c1)SC` (stereo not given), the melting point was in the range of 141 to 142 °C.
For the molecule `N#Cc1ccc(CC2CCN(C(=O)c3ccc(Cl)cc3)CC2)cc1`, the melting point lay in the range of 137 to 139 °C.
The value for `CC(C)(C)OC(=O)N1CCC(C2=C(C#N)C(c3ccccc3Cl)c3c[nH]nc3N2)CC1` (stereo not given) was above 280 °C.
For the molecule `CC1(O)CCC2(C)C(CCC3C2CCC2(C)C3CCC2[N+](=O)[O-])C1` (stereo not given), the melting point fell in the range of 211 to 213 °C.
With `COC(=O)c1oc(C(C)(C)C)cc1NC(=O)Nc1ccc(F)cc1` the figure was 81 to 82 °C; with `Cc1ccc2cc(C3=NCCS3)[nH]c2c1NS(=O)(=O)c1cccs1`, 183 to 184 °C; with `Oc1ccccc1Cc1cccc2[nH]ccc12`, 139 °C.
Molecule `CCCCNS(=O)(=O)c1cc(C(=O)OCC)cc(NCc2ccccc2)c1Oc1ccccc1` registered a melting point of 149 to 150 °C.
Molecule `CC(=O)OCC1Cn2cc(C(=O)NCc3ccc(Cl)cc3)c(=O)c3cc(CN4CCOCC4)cc(c32)O1` (stereo not given) returned a melting point of 215 to 218 °C.
`O=C(CCSc1ccc2ccccc2c1)c1ccccc1` registered a melting point of 90 to 91 °C.
`COc1ccc(Br)cc1-c1cc(-c2cccc(Br)c2)on1`: the melting point fell in the range of 149 to 150 °C.
The molecule `COc1cc(OC)nc(Nc2ncccc2C(=O)OCc2ccccc2)n1` registered a melting point of 128 to 131 °C.
The value for `Cc1cc(SCc2ccc(OCc3ccc(Cl)cc3Cl)cc2)ccc1OCC(=O)O` was 101 to 103 °C; that for `Cc1ccc2cccc(OCc3c(C)ccc(NC(=O)CN4C(=O)c5ccccc5C4=O)c3C)c2n1` was 266 to 268 °C; that for `Nc1ccc(CNC(=O)C2Cc3ccccc3N2S(=O)(=O)c2ccc(-c3cccc(C(F)(F)F)c3)cc2)cc1` (stereo not given) was 84 °C.
With `Nc1nc(NCc2ccccc2)c2ncn(C3C=CC(CO)C3)c2n1` (stereo not given) the figure was 174 to 176 °C; with `Cc1ccc(-c2nn3cccnc3c2CC(=O)O)cc1`, 170 to 171 °C; with `CN(Cc1ccccc1)[C@H](Cc1c[nH]c2ccccc12)c1nc(-c2ccccc2)c[nH]1`, 110 to 112 °C.
The molecule `COC(=O)c1cc2c(cc1[N+](=O)[O-])OCCO2` showed a melting point of 115 to 118 °C.
The value for `CC(=O)c1cc(S(=O)(=O)c2cccc(F)c2)ccc1OC[C@@H]1CO1` was 113 to 115 °C; that for `N#Cc1c(NC(=O)CO)cccc1NC(=O)CO` was 188 to 189 °C.
In turn, `Cc1cc(/C=C/C(=O)N(C)O)c(C)n1-c1ccc(C(=O)N(C)C)cc1` came in with a melting point of 172 to 174 °C.
The value for `O=C(c1ccc(Nc2ccnc3cc(C(F)(F)F)ccc23)cc1)N1CCN(S(=O)(=O)c2ccc(F)cc2)CC1` was 251 to 253 °C; that for `CN(C)CCOc1ccc(N(C(=O)c2ccc(F)cc2)c2ccccc2)cc1` was 88.5 to 90 °C; that for `CCCCN1CCC(CCC(=O)c2cc(Cl)c(N)nc2OC)CC1` was 86 to 87 °C.
`CCOC(=O)CN1CCc2cc3c(cc2CC1)OCO3` gave a melting point of 89 to 90 °C.
As for `CC(C)C[C@H](OC(=O)NC1CCCCC1)C(=O)OCc1ccccc1`, the melting point was in the range of 89 to 90 °C.

What is called melting point is the temperature, or range, at which the solid turns liquid.
